From patent US11236087B2, “Highly active pyrazolo-piperidine substituted indole-2-carboxamides active against the hepatitis B virus (HBV)” (AiCuris GmbH & Co. KG, priority 2017, dated 2022)
Like-named read-outs stand apart in the source and are kept apart here.

Columns and labels:
[1] = molecular target: T1, HBV core protein (UniProt P03146); assay: Biochemical capsid assembly assay (fluorescence quenching); parameters: species or system hepatitis B virus; details: read-out: Assembly Activity (IC50); BODIPY-FL labelled core protein, 300 μM NaCl, read 6 min after start
T1 construct: fused on or other part: BODIPY-FL maleimide label on the C-terminal Cys150
Description: Biochemical Capsid Assembly Assay
The screening for assembly effector activity was done based on a fluorescence quenching assay published by Zlotnick et al. (2007). The C-terminal truncated core protein containing 149 amino acids of the N-terminal assembly domain fused to a unique cysteine residue at position 150 and was expressed in E. coli using the pET expression system (Merck Chemicals, Darmstadt). Purification of core dimer protein was performed using a sequence of size exclusion chromatography steps. In brief, the cell pellet from 1 L BL21 (DE3) Rosetta2 culture expressing the coding sequence of core protein cloned NdeI/XhoI into expression plasmid pET21b was treated for 1 h on ice with a native lysis buffer (Qproteome Bacterial Protein Prep Kit; Qiagen, Hilden). After a centrifugation step the supernatant was precipitated during 2 h stirring on ice with 0.23 g/ml of solid ammonium sulfate. Following further centrifugation the resulting pellet was resolved in buffer A (100 mM Tris, pH 7.5; 100 mM NaCl; 2 mM DTT) and was subsequently loaded onto a buffer A equilibrated CaptoCore 700 column (GE HealthCare, Frankfurt). The column flow through containing the assembled HBV capsid was dialyzed against buffer N (50 mM NaHCO3 pH 9.6; 5 mM DTT) before urea was added to a final concentration of 3M to dissociate the capsid into core dimers for 1.5 h on ice. The protein solution was then loaded onto a 1 L Sephacryl S300 column. After elution with buffer N core dimer containing fractions were identified by SDS-PAGE and subsequently pooled and dialyzed against 50 mM HEPES pH 7.5; […]. To improve the assembly capacity of the purified core dimers a second round of assembly and disassembly starting with the addition of 5 M NaCl and including the size exclusion chromatography steps described above was performed. From the last chromatography step core dimer containing fractions were pooled and stored in aliquots at concentrations between 1.5 to 2.0 mg/ml at −80° C.
Immediately before labelling the core protein was reduced by adding freshly prepared DTT in a final concentration of 20 mM. After 40 min incubation on ice storage buffer and DTT was removed using a Sephadex G-25 column (GE HealthCare, Frankfurt) and 50 mM HEPES, pH 7.5. For labelling 1.6 mg/ml core protein was incubated at 4° C. and darkness overnight with BODIPY-FL maleimide (Invitrogen, Karlsruhe) in a final concentration of 1 mM. After labelling the free dye was removed by an additional desalting step using a Sephadex G-25 column. Labelled core dimers were stored in aliquots at 4° C. In the dimeric state the fluorescence signal of the labelled core protein is high and is quenched during the assembly of the core dimers to high molecular capsid structures. The screening assay was performed in black 384 well microtiter plates in a total assay volume of 10 μl using 50 mM HEPES pH 7.5 and 1.0 to 2.0 μM labelled core protein. Each screening compound was added in 8 different concentrations using a 0.5 log-unit serial dilution starting at a final concentration of 100 μM, 31.6 μM or 10 μM, In any case the DMSO concentration over the entire microtiter plate was 0.5%. The assembly reaction was started by the injection of NaCl to a final concentration of […] which induces the assembly process to approximately 25% of the maximal quenched signal. 6 min after starting the reaction the fluorescence signal was measured using a Clariostar plate reader (BMG Labtech, Ortenberg) with an excitation of 477 nm and an emission of 525 nm. As 100% and 0% assembly control HEPES buffer containing 2.5 M and 0 M NaCl was used. Experiments were performed thrice in triplicates. EC50 values were calculated by non-linear regression analysis using the Graph Pad Prism 6 software (GraphPad Software, La Jolla, USA).

[2] = test system: HBV; assay: Determination of HBV DNA from the supernatants of HepAD38 cells (anti-HBV activity); type: cell-based, hepatitis B virus; details: Hepatitis B virus, read-out: Cell Activity (EC50)
Method in brief: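 Supernatant viral DNA was measured by LightCycler qPCR, calibrated with pCH-9/3091 plasmid, 6 days after tetracycline-free HepAD38 cultures received half-log serial compound dilutions; untreated and tetracycline-treated cells served as controls; EC50 was fitted by non-linear regression.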

[3] = Cell viability assay (AlamarBlue) in HepAD38 cells; details: human
[4] = 144 h, HBV DNA in HepAD38 supernatant, day 6, qPCR

T1 sequence (P03146 whole entry, looked up, the tested form may be a part): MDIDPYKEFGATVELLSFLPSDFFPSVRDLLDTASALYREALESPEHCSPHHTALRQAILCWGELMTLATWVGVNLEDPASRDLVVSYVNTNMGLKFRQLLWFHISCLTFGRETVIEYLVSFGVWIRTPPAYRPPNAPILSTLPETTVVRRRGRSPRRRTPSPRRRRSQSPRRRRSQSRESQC

Row | Structure (SMILES) | IC50 [1] | EC50 [2, 4] | CC50 at 6 days [3] | EC50 ([2]; HePAD38, 144 h)
1 | CCNc1n[nH]c2c1CN(C(=O)c1cc3ccccc3[nH]1)CC2 [Example 80, N-ethyl-5-(1H-indole-2-carbonyl)-1H,4H,5H,6H,7H-pyrazolo[4,3-c]pyridin-3-amine] | < 100 µM | 1 to 25 µM | > 100 µM | –
2 | CN(CCCO)C(=O)c1n[nH]c2c1CN(C(=O)c1cc3ccccc3[nH]1)CC2 [Example 102, N-(3-hydroxypropyl)-5-(1H-indole-2-carbonyl)-N-methyl-1H,4H,5H,6H,7H-pyrazolo[4,3-c]pyridine-3-carboxamide] | < 5 µM | < 1 µM | > 100 µM | –
3 | COCC1(N(C)C(=O)c2n[nH]c3c2CN(C(=O)c2cc4cc(F)ccc4[nH]2)CC3)CC1 [Example 204, 5-(5-fluoro-1H-indole-2-carbonyl)-N-[1-(methoxymethyl)cyclopropyl]-N-methyl-1H,4H,5H,6H,7H-pyrazolo[4,3-c]pyridine-3-carboxamide] | < 5 µM | < 1 µM | > 10 µM | –
4 | CNC1(COC(=O)c2n[nH]c3c2CN(C(=O)c2cc4ccccc4[nH]2)CC3)CC1 [Example 32, [1-(methylamino)cyclopropyl]methyl 5-(1H-indole-2-carbonyl)-1H,4H,5H,6H,7H-pyrazolo[4,3-c]pyridine-3-carboxylate] | < 5 µM | < 1 µM | > 100 µM | –
5 | CC(C)OC(=O)[C@H](C)NP(=O)(OCCN(C)C(=O)c1n[nH]c2c1CN(C(=O)c1cc3c(Cl)cccc3[nH]1)CC2)Oc1ccccc1 (stereo partly drawn) [Example 67, propan-2-yl (2S)-2-{[(2-{1-[5-(4-chloro-1H-indole-2-carbonyl)-1H,4H,5H,6H,7H-pyrazolo[4,3-c]pyridin-3-yl]-N-methylformamido}ethoxy)(phenoxy)phosphoryl]amino}propanoate] | < 5 µM | – | > 32 µM | < 1 µM
6 | CN(CCO)C(=O)c1n[nH]c2c1CN(C(=O)c1cc3c(F)cc(F)cc3[nH]1)CC2 [Example 28, 5-(4,6-difluoro-1H-indole-2-carbonyl)-N-(2-hydroxyethyl)-N-methyl-1H,4H,5H,6H,7H-pyrazolo[4,3-c]pyridine-3-carboxamide] | < 5 µM | < 1 µM | > 10 µM | –
7 | CN(CCO)C(=O)c1n[nH]c2c1CN(C(=O)c1cc3c(C(F)(F)F)cccc3[nH]1)CC2 [Example 59, N-(2-hydroxyethyl)-N-methyl-5-[4-(trifluoromethyl)-1H-indole-2-carbonyl]-1H,4H,5H,6H,7H-pyrazolo[4,3-c]pyridine-3-carboxamide] | < 5 µM | < 1 µM | > 32 µM | –
8 | CN(C)c1n[nH]c2c1CN(C(=O)c1cc3ccccc3[nH]1)CC2 [Example 75, 5-(1H-indole-2-carbonyl)-N,N-dimethyl-1H,4H,5H,6H,7H-pyrazolo[4,3-c]pyridin-3-amine] | 5 to 10 µM | < 1 µM | > 100 µM | –
9 | O=C(c1cc2c(C(F)(F)F)cccc2[nH]1)N1CCc2n[nH]c(-c3cscn3)c2C1 [Example 21, 2-[3-(1,3-thiazol-4-yl)-2H,4H,5H,6H,7H-pyrazolo[4,3-c]pyridine-5-carbonyl]-4-(trifluoromethyl)-1H-indole] | < 100 µM | < 1 µM | > 10 µM | –
10 | COCC1(N(C)C(=O)c2n[nH]c3c2CN(C(=O)c2cc4c(Cl)cc(F)cc4[nH]2)CC3)CC1 [Example 264, 5-(4-chloro-6-fluoro-1H-indole-2-carbonyl)-N-[1-(methoxymethyl)cyclopropyl]-N-methyl-1H,4H,5H,6H,7H-pyrazolo[4,3-c]pyridine-3-carboxamide] | < 5 µM | < 1 µM | > 10 µM | –
11 | O=C(c1cc2cccc(Cl)c2[nH]1)N1CCc2[nH]ncc2C1 [Example 120, 7-chloro-2-{1H,4H,5H,6H,7H-pyrazolo[4,3-c]pyridine-5-carbonyl}-1H-indole] | 5 to 10 µM | < 1 µM | > 100 µM | –
12 | O=C(c1cc2ccccc2[nH]1)N1CCc2[nH]nc(C(=O)N3CCOCC34CC4)c2C1 [Example 195, 2-(3-{7-oxa-4-azaspiro[2.5]octane-4-carbonyl}-1H,4H,5H,6H,7H-pyrazolo[4,3-c]pyridine-5-carbonyl)-1H-indole] | 5 to 10 µM | < 1 µM | > 10 µM | –
13 | C[C@@H]1CCCCN1C(=O)c1n[nH]c2c1CN(C(=O)c1cc3ccccc3[nH]1)CC2 [Example 148, 2-{3-[(2R)-2-methylpiperidine-1-carbonyl]-1H,4H,5H,6H,7H-pyrazolo[4,3-c]pyridine-5-carbonyl}-1H-indole] | 5 to 10 µM | 1 to 25 µM | > 10 µM | –
14 | CCN(C(=O)c1n[nH]c2c1CN(C(=O)c1cc3ccccc3[nH]1)CC2)C1COC1 [Example 185, N-ethyl-5-(1H-indole-2-carbonyl)-N-(oxetan-3-yl)-1H,4H,5H,6H,7H-pyrazolo[4,3-c]pyridine-3-carboxamide] | 5 to 10 µM | < 1 µM | > 10 µM | –
15 | CN(C(=O)c1n[nH]c2c1CN(C(=O)c1cc3ccccc3[nH]1)CC2)[C@H]1CC[C@@H](O)CC1 [Example 174, 5-(1H-indole-2-carbonyl)-N-methyl-N-[(1s,4s)-4-hydroxycyclohexyl]-1H,4H,5H,6H,7H-pyrazolo[4,3-c]pyridine-3-carboxamide] | < 100 µM | 1 to 25 µM | > 10 µM | –
16 | CN(C(=O)c1n[nH]c2c1CN(C(=O)c1cc3ccccc3[nH]1)CC2)C1(CC#N)CC1 [Example 361, N-[1-(cyanomethyl)cyclopropyl]-5-(1H-indole-2-carbonyl)-N-methyl-1H,4H,5H,6H,7H-pyrazolo[4,3-c]pyridine-3-carboxamide] | < 5 µM | 1 to 25 µM | > 10 µM | –
17 | CCc1cc(F)cc2[nH]c(C(=O)N3CCc4[nH]nc(C5CCCO5)c4C3)cc12 (stereo not shown) [Example 340, 4-ethyl-6-fluoro-2-[3-(oxolan-2-yl)-1H,4H,5H,6H,7H-pyrazolo[4,3-c]pyridine-5-carbonyl]-1H-indole] | < 5 µM | < 1 µM | > 10 µM | –
18 | O=C(c1cc2ccccc2[nH]1)N1CCc2[nH]nc(C34CC(C3)C4)c2C1 [Example 343, 2-(3-{bicyclo[1.1.1]pentan-1-yl}-1H,4H,5H,6H,7H-pyrazolo[4,3-c]pyridine-5-carbonyl)-1H-indole] | < 5 µM | < 1 µM | > 10 µM | –
19 | CN(C(=O)c1n[nH]c2c1CN(C(=O)c1cc3ccccc3[nH]1)CC2)C(C)(C)CO [Example 143, N-(1-hydroxy-2-methylpropan-2-yl)-5-(1H-indole-2-carbonyl)-N-methyl-1H,4H,5H,6H,7H-pyrazolo[4,3-c]pyridine-3-carboxamide] | 5 to 10 µM | 1 to 25 µM | – | –
20 | COC(=O)C1CCN(C(=O)c2n[nH]c3c2CN(C(=O)c2cc4ccccc4[nH]2)CC3)CC1 [Example 132, methyl 1-[5-(1H-indole-2-carbonyl)-1H,4H,5H,6H,7H-pyrazolo[4,3-c]pyridine-3-carbonyl]piperidine-4-carboxylate] | < 5 µM | – | > 10 µM | –
